Legend:
[1] = system: panelists; assay: Sensory evaluation of 1 and 3 (single sip protocol, taste panel); type: in vivo, human; conditions: 400 ppm in water, 4° C.; for Bitter Aftertaste Intensity / Sweet Linter Intensity / Other Intensity / Overall Max Bitterness Intensity / Overall Max Sweetness Intensity / Bitter Intensity (In mouth) / Sweet Intensity (In mouth): mean score; for Bitter Aftertaste Intensity / Sweet Linter Intensity: 1 minute after tasting; for Other Intensity: any aromatic other than sweet and bitter or mouthfeel; for Overall Max Bitterness Intensity / Overall Max Sweetness Intensity: up to 1 minute
Description: Samples were prepared as described in Table 1. All samples were served at 4° C.
Samples were evaluated using a single sip protocol as follows: • Samples were served at approximately 4° C. • Panelists were instructed to take 1 sip of the sample, hold in mouth for 5 seconds, expectorate comfortable with this), and rate the given attributes • A 5 minute break was placed between each sample and panelists were instructed to cleanse their palates with at least 1 bite of unsalted cracker and 2 sips of filtered water • Due to limited sample quantities, panelists were given the following amounts to test: • a 3 vs Reb M: 1.5 mL • 1 vs Reb M: 5 mL • Samples were randomized within each session for each panelist • All samples were presented in replicate in each session Samples were evaluated for: • Sweet taste intensity: maximum level of sweetness in mouth during 5 seconds • Bitter taste intensity: maximum level of bitterness in mouth during 5 seconds • Overall maximum sweet intensity: maximum sweet intensity experienced from the time the sip is taken up to 1 minute • Overall maximum bitter intensity: maximum […] intensity experienced from the time the sip is taken up to 1 minute • Other intensity: Intensity of any aromatic other than sweet and bitter (metallic, plastic, licorice, etc.) or mouthfeel/sensation • Sweet linger intensity: sweet intensity 1 minute after tasting the sample • Bitter aftertaste intensity: bitter intensity 1 minute after tasting the sample Data Analysis. A 3-way ANOVA was used to compare the sweeteners for each attribute, for 1 only, and significance was determined at p<0.05. Fishers's LSD was used to determine significant differences between mean scores.

[2] = Solubility observed when preparing NMR samples (solvent screen); type: physicochemical; conditions: for Dissolution of the sample in 250 μL of CD3OD: ~4.3 mg (4, CD3OD+TMS) or 3.8 mg (6) in 250 μL
Description: Isolation Procedure. Fractions collected during the final pre-concentration step were filtered through a stainless steel sieve and concentrated in vacuo using a Buchi® Rotary Evaporator, Model R-114. The concentrated solution was dried for 48-72 h using the Kinetics Flexi-Dry Personal Freeze Dryer, followed by vacuum oven drying at 37° C. for 24 h to remove residual moisture. MS and MS/MS. MS and MS/MS data were generated with a Waters QTof Micro mass spectrometer equipped with an electrospray ionization source. The sample was analyzed by negative ESI. The sample was diluted to a concentration of 0.1 mg/mL with H2O:MeCN (1:1) and introduced via flow injection for MS data acquisition, tuned for MS/MS and acquired by direct infusion. NMR. […] The ^1H, COSY, HSQC-DEPT and NOESY NMR data were acquired on Bruker Avance 500 MHz instruments with either a 2.5 mm inverse probe or a 5 mm broad band probe. The ^13C and HMBC NMR data were acquired at the Rensselaer Polytechnic Institute using their Bruker Avance 600 MHz instrument with a 5 mm cryo-probe. The ^1H and ^13C NMR spectra were referenced to the TMS resonance at δH 0.00 ppm and CD3OD resonance at 49.0 ppm, respectively. […] The sample was recovered and blown dry under nitrogen or lyophilized between each solvent screen]. Results and Discussion Unless otherwise noted, all solvent ratios are listed as percent by volume (v/v). Primary Purification. Approximately 300 g of Lot #CB-2977-171 was processed using the primary preparative HPLC method described above. […] Fraction 3 (Lot #JAM-D-10-3) contained the target of interest. Secondary Purification. Lot #JAM-D-10-3 (and equivalent lots) was reprocessed with conditions summarized above. […] Tertiary Purification. Fraction Lot #JAM-D-40-2 was reprocessed with conditions summarized above. Fractions with low level m/z 1776 targets were collected as CJP-C-128 (3, 4, 5, 7). These fractions were subsequently pooled to enhance signal strength for additional processing. Quaternary Purification. Fraction Lot #CJP-C-128 (3, 4, 5, 7) (and equivalent lots) were reprocessed with conditions summarized above. Fraction 1, Lot #CJP-C-130(1), was isolated for additional processing. Quinary Purification. Fraction Lot #CJP-C-130(1) (and equivalent lots) were reprocessed with conditions summarized above. Fraction 9, Lot #CJP-C-133(9), was isolated. […] Secondary Purification. Fraction Lot #CJP-C-133(9) was reprocessed with conditions summarized above. Final Batch Preparation. The purified solution was filtered through a stainless steel sieve to remove particulates. The solution was then concentrated by rotary evaporation and lyophilized for about 72 h. The final batch (4.3 mg), was isolated with >99% (AUC, CAD) purity. Mass Spectrometry. […]

[3] = 1 vs Reb M session, 5 mL sip, N=6
[4] = 3 vs Reb M session, 1.5 mL sip, N=3

Row | Solubility in solvent screen ([2]; pyridine-d5+TMS (~4 mg/170 μL), D2O+TSP (~4 mg/170 μL), DMSO-d6+TMS) | Dissolution of the sample in 250 μL of CD3OD [2] | Soluble portion of the sample in CD3OD+TMS ([2]; ~4.3 mg of sample in 250 μL of CD3OD+TMS) | Structure (SMILES) | Bitter Aftertaste Intensity [1, 3] | Sweet Linter Intensity [1, 3] | Bitter Aftertaste Intensity [1, 4] | Sweet Linter Intensity [1, 4] | Other Intensity [1, 3] | Other Intensity [1, 4] | Overall Max Bitterness Intensity [1, 3] | Overall Max Sweetness Intensity [1, 3] | Overall Max Bitterness Intensity [1, 4] | Overall Max Sweetness Intensity [1, 4] | Bitter Intensity (In mouth) [1, 3] | Sweet Intensity (In mouth) [1, 3] | Bitter Intensity (In mouth) [1, 4] | Sweet Intensity (In mouth) [1, 4] | Overall Max Sweetness compared to Reb M [1] | Sweet Intensity in Mouth compared to Reb M [1] | Sweet Linger Intensity compared to Reb M [1]
1 |  |  |  | C=C1C[C@@]23CC[C@H]4[C@@](C)(CCC[C@@]4(C)C(=O)O[C@@H]4O[C@H](CO)[C@@H](O)[C@H](O[C@@H]5O[C@H](CO)[C@@H](O)[C@H](O)[C@H]5O)[C@H]4O[C@@H]4O[C@H](CO)[C@@H](O)[C@H](O)[C@H]4O)[C@@H]2CC[C@]1(O[C@@H]1O[C@H](CO)[C@@H](O)[C@H](O[C@@H]2O[C@H](CO)[C@@H](O)[C@H](O)[C@H]2O)[C@H]1O[C@@H]1O[C@H](CO)[C@@H](O)[C@H](O)[C@H]1O)C3 [Reb M, rebaudioside M, reference compound] | 0.5 | 3.6 | 0.3 | 2.5 | 0.8 | 0.3 | 0.8 | 8.4 | 1.4 | 6.3 | 0.7 | 7.8 | 0.4 | 7.4 |  |  | 
2 |  |  |  | C=C1C[C@@]23CC[C@H]4[C@@](C)(CCC[C@@]4(C)C(=O)OC4OC(CO)C(O)C(OC5OC(CO)C(O)C(O)C5O)C4OC4OC(CO)C(O)C(O)C4O)[C@@H]2CCC1(OC1OC(CO)C(O)C(OC2OC(CO)C(O)C(O)C2O)C1OC1OC(COC2OC(CO)C(O)C(OC4OC(CO)C(O)C(O)C4O)C2OC2OC(CO)C(O)C(O)C2O)C(O)C(O)C1O)C3 (stereo partly shown) [diterpene glycoside 1] | 0.8 | 0.0 |  |  | 1 |  | 0.8 | 1.1 |  |  | 0.7 |  |  |  | significantly lower | significantly lower | significantly lower
3 |  |  |  | C=C1C[C@@]23CC[C@H]4[C@@](C)(CCC[C@@]4(C)C(=O)OC4OC(COC5OC(CO)C(O)C(OC6OC(CO)C(O)C(O)C6O)C5OC5OC(CO)C(O)C(O)C5O)C(O)C(OC5OC(CO)C(O)C(O)C5O)C4OC4OC(CO)C(O)C(O)C4O)[C@@H]2CCC1(OC1OC(CO)C(O)C(OC2OC(CO)C(O)C(O)C2O)C1OC1OC(CO)C(O)C(O)C1O)C3 (stereo partly drawn) [diterpene glycoside 3, (13-[(2-O-β-D-glucopyranosyl-3-O-β-D-glucopyranosyl)-β-D-glucopyranosyl)oxy] ent-kaur-16-en-19-oic acid-[(2-O-β-D-glucopyranosyl-3-O-β-D-glucopyranosyl-6-O-α-D-glucopyranosyl-(2-O-β-D-glucopyranosyl-3-O-β-D-glucopyranosyl)-β-D-glucopyranosyl) ester]] |  |  | 0.3 | 0.9 |  | 0.5 |  |  | 1.3 | 5.6 |  |  | 0.3 | 5.4 | slightly lower | slightly lower | significantly less
4 | very poor solubility | did not dissolve readily | ~1.5 mg/250 μL | C=C1C[C@@]23CC[C@H]4[C@@](C)(CCC[C@@]4(C)C(=O)OC4OC(CO)C(O)C(OC5OC(CO)C(O)C(O)C5O)C4OC4OC(CO)C(O)C(OC5OC(CO)C(O)C(OC6OC(CO)C(O)C(O)C6O)C5OC5OC(CO)C(O)C(O)C5O)C4O)[C@@H]2CCC1(OC1OC(CO)C(O)C(OC2OC(CO)C(O)C(O)C2O)C1OC1OC(CO)C(O)C(O)C1O)C3 (stereo partly shown) [diterpene glycoside 4] |  |  |  |  |  |  |  |  |  |  |  |  |  |  |  |  | 
5 |  | did not dissolve completely |  | C=C1C[C@@]23CC[C@H]4[C@@](C)(CCC[C@@]4(C)C(=O)OC4OC(CO)C(O)C(OC5OC(CO)C(O)C(O)C5O)C4OC4OC(COC5OC(CO)C(O)C(OC6OC(CO)C(O)C(O)C6O)C5OC5OC(CO)C(O)C(O)C5O)C(O)C(O)C4O)[C@@H]2CCC1(OC1OC(CO)C(O)C(OC2OC(CO)C(O)C(O)C2O)C1OC1OC(CO)C(O)C(O)C1O)C3 (stereo partly drawn) [diterpene glycoside 6, (13-[(2-O-β-D-glucopyranosyl-3-O-β-D-glucopyranosyl)-β-D-glucopyranosyl)oxy] ent-kaur-16-en-19-oic acid-[(2-O-β-D-glucopyranosyl-(6-O-α-D-glucopyranosyl-(2-O-β-D-glucopyranosyl-3-O-β-D-glucopyranosyl)-3-O-β-D-glucopyranosyl)-β-D-glucopyranosyl) ester]] |  |  |  |  |  |  |  |  |  |  |  |  |  |  |  |  | 

Reference: patent US11584769B2, “Diterpene glycosides, compositions and purification methods” (The Coca-Cola Company, priority 2014, dated 2023)
